One substance from article PMC8333620, “Novel Tl(III) complexes containing pyridine-2,6-dicarboxylate derivatives with selective anticancer activity through inducing mitochondria-mediated apoptosis in A375 cells” (Scientific Reports, 2021) can be followed below.

The test system of one data set is p53. The data set can be described thus: Western blot, p53 in A375 cells. Type of data set: cell-based, human. The settings on record: A375, IC50 concentrations, 24 h. On the procedure:
(§1) After incubation with C1 and C3 at IC50 concentrations for 24 h, A375 cells were harvested and lysed in 150 μL of lysis buffer (149 μL RIPA and 1 μL PMSF), and then placed on ice for 15 min. Total proteins were extracted by centrifuging the cell sample at 10,000 rpm and 4 °C for 10 min. Then about 50 μg of purified proteins were mixed with an equal volume of electrophoresis sample buffer, and the mixture was heated for 10 min. Meanwhile, the equal protein content from the control cells was prepared in the same way. The cell sample (10 μL) was loaded onto 10% SDS-PAGE gels and then transferred onto a microporous polyvinylidene difluoride (PVDF) membrane. The membrane was blocked with 5% BSA in TBST buffer for more than 2 h. After the removal of TBST buffer, membranes were incubated with an appropriate dilution of specific primary antibodies in TBST overnight at 4 °C and then washed with TBST three times. The membranes were incubated with secondary antibodies for 1 h and washed with TBST. The immunoreactive signals were detected using an enhanced chemo-luminance kit (Pierce ECL Western Blotting Substrate) following the procedures given in the user manual[46],[63].
(In general: In western blotting, separated proteins are transferred to a membrane and probed.)

The next data set concerns procaspase-9. The data set is described as follows: Western blot, procaspase-9 in A375 cells. The format is cell-based, human. The settings on record: A375, IC50 concentrations, 24 h, densitometry. On the procedure: as §1
For data set [1], the system named is HT29 (a human colon adenocarcinoma) cell line. The data set can be described thus: MTT cytotoxicity assay, HT29. Type of data set: cell-based. The settings on record: MTT, 48 h. The method, then:
In this study, A375 (a human melanoma), HT29 (a human colon adenocarcinoma), and HFF (a human foreskin fibroblast) cell lines were provided from the Pasteur Institute (Iran). […] 10 mM stock solutions of compounds were prepared in DMSO and diluted in a fresh medium for use. The final concentration of DMSO never exceeded 0.1% (v/v). […] Then the medium was replaced with the respective medium containing ligands or Tl(III) complexes at different concentrations and incubated for 48 h. 10 μL of MTT was added and the medium was removed after 4 h of incubation. Finally, the violet crystal was solubilized in 100 μL DMSO and the absorbance was measured at 570 nm. IC50 value was measured by the standard method. The evaluations were carried out in triplicate[21],[23].
A general note: Tetrazolium assays rely on reduction of a dye to a coloured formazan, in cell work by metabolically active cells.

The test system of data set [2] is A375 cells. The data set is described as follows: Cell cycle analysis (PI, flow cytometry), A375. The format is cell-based, human. The note with it: A375, IC50 concentrations, 24 h; with respect to untreated control cells. On the procedure: A375 cells were seeded in 6-well plates with 1.5 × 10^6 cells /well and treated with the C1 and C3 at IC50 concentrations for 24 h. Cells were trypsinized, collected, and fixed in ice-cold 75% ethanol at − 20 °C overnight. After centrifugation, the fixed cells were rinsed with ice-cold phosphate-buffered saline (PBS) and resuspended in 0.5 mL of PBS containing 100 μg/mL DNase-free RNase A (Thermo Fisher Scientific Biosciences GmbH, St. Leon-Rot, Germany), 50 μg/mL propidium iodide (PI; Sigma Aldrich) in the dark for 30 min. The distribution of the cells in different phases of the cell cycle was determined using flow cytometry (Attune Nxt, Thermo Fisher Scientific-US) and FlowJo software v10.6.1 (https://www.flowjo.com/solutions/flowjo/downloads) was used to analyze the data. This test was performed as explained on HFF cells treatment to C3 (at the highest concentration)[62].

In data set [3] the test system is A375 cells. The data set is described as follows: Apoptosis by Annexin-V/PI staining. The settings on record: A375, IC50 concentrations, 24 h. The format is cell-based, human. The method, then:
Annexin V-FITC and PI staining (Annexin V/PI) apoptosis detection kit were used for assessing the percentage of dead cells by apoptosis pathway. Briefly, A375 cells were treated with C1 and C3 at IC50 concentrations. After 24 h of incubation, cells were washed with PBS, trypsinized, centrifuged, and re-suspended in 100 μL binding buffer at a concentration of 1 × 10^6 cells/mL, then added 5 μL of annexin V-FITC conjugate (30 min), and 5 μL of Propidium Iodide (PI) to each cell suspension (20 min) in the dark. The samples were analyzed using a flow cytometer (Attune Nxt, Thermo Fisher Scientific-US), and the results were assessed using the FlowJo software.

For data set [4], the system named is A375 cells. The data set can be described thus: Intracellular ROS (H2DCF-DA, flow cytometry), A375. Type of data set: cell-based, human. The settings on record: A375, IC50 concentrations, 24 h. The method, then: The generation of intracellular ROS was evaluated by reactive oxygen species assay kit. 2 mL of A375 cells (1 × 10^6 cells/mL) were induced with C1–C3 (at IC50 concentrations) at 37 °C for 24 h, serum-free medium washed twice. Then, the cells were incubated in 2 mL of serum-free medium containing H2DCF-DA (2 μM) for 30 min at 37 °C, serum-free medium washed twice. Cells were collected and assayed by flow cytometer with excitation wavelength at 489 nm and emission wavelength at 524 nm, and ten thousand events were collected. The DCF fluorescence peak for this cell sample was evaluated and data were analyzed by FlowJo software. This test was performed as explained on HFF cells treatment to C3 (at the highest concentration)[38].
Background: A flow cytometer gives signals particle by particle.

The next data set concerns Bax/Bcl-2. The data set can be described thus: Western blot, Bax/Bcl-2 ratio in A375 cells. Type of data set: cell-based, human. The settings on record: A375, IC50 concentrations, 24 h. On the procedure: as §1
Data set [5] relates to A375 cells. The data set can be described thus: Mitochondrial membrane potential assay (JC-1), A375. Type of data set: cell-based, human. The note with it: A375, IC50 concentrations, JC-1, 24 h. On the procedure:
Mitochondrial membrane potential analysis was determined by fluorescent dye JC-1 staining according to the manufacturer's protocol for the JC-1 assay kit. In brief, 2 mL of A375 cells (1 × 10^5 cells/mL) were treated with IC50 concentrations of C1 and C3 in 6-well plates for […]. Cells were harvested and washed three times with PBS after 24 h of incubation. Then cells were stained with 1 mL of JC-1 stock solution (10 mg/mL). Assays were initiated by incubating A375 cells with JC-1 for 30 min at 37 °C in the dark and detected with a fluorescence microscope. This test was performed as explained on HFF cells treatment to C3 (at the highest concentration).

For the substance (4-apyH)[Tl(pydc)(pydcH)2]0.5H2O [C3], in the data set on p53, the “level of p53” value is listed as “significantly enhanced”. Also, in the data set with procaspase-9, the “procaspase-9 level compared to control” value stood at 110.97%. Moreover, the “Viability inhibition, HT29” value in data set [1] (concentration not given) is 53.12%. The IC50 (in general, the concentration that inhibits the measured activity by half) in data set [1] (read-out: Cytotoxicity (IC50 ± SEM) against HT29) is 193.2 ± 1.12 µM. In the data set on A375 cells [2], the “rise in the cellular population of the G2-M phase” value is 21.10%. For the same substance, in the data set with A375 cells [3], the “apoptosis, more effective than vehicle control-treated” value is listed as 61.66%; the “early apoptosis (annexin V+/PI-, Q3)” value stood at 11.47%; the “late apoptosis (annexin V+/PI+, Q2)” value was 50.19%. Also, the “ROS level (DCF oxidation), more effective than vehicle control-treated” value in the data set with A375 cells [4] is 229.4%. Further, the “ratio of Bax/Bcl-2” value in the data set on Bax/Bcl-2 is recorded as 5.25 fold. In addition, the “mitochondrial membrane potential (MMP) in A375 cells” value in the data set on A375 cells [5] was “MMP reduction”.
